According to ChEMBL document CHEMBL6092203, “Discovery of Novel PROTAC-Based HPK1 Degraders with High Potency and Selectivity for Cancer Immunotherapy” (J Med Chem, 2024):
Activity calls are given as the source filed them. The rule behind the calls is not given here.

What was measured:
[1] = Tmax in female Sprague-Dawley rat at 100 mg/kg/day, po measured at day 1; type: ADME, organism-based; details: in vivo, time 1 day
[2] = target: T1, Protein cereblon/Mitogen-activated protein kinase kinase kinase kinase 1 (Homo sapiens, UniProt Q92918+Q96SW2); experiment: PROTAC activity at CRBN/HPK1 in human Jurkat cells assessed as maximum degradation incubated for 24 hrs by Western blotting analysis; type: cell-based
[3] = Volume of distribution at steady state in Beagle dog at 1 mg/kg, iv measured upto 24 hrs by LC-MS analysis; type: ADME, organism-based, Canis lupus familiaris; details: in vivo
Cytochrome P450 2B6 = target: T2, Cytochrome P450 2B6 (Homo sapiens, UniProt P20813); experiment: Inhibition of CYP2B6 in human liver microsomes using bupropion as substrate in presence of NADPH; type: ADME, Microsome
T2 sequence (P20813 whole entry): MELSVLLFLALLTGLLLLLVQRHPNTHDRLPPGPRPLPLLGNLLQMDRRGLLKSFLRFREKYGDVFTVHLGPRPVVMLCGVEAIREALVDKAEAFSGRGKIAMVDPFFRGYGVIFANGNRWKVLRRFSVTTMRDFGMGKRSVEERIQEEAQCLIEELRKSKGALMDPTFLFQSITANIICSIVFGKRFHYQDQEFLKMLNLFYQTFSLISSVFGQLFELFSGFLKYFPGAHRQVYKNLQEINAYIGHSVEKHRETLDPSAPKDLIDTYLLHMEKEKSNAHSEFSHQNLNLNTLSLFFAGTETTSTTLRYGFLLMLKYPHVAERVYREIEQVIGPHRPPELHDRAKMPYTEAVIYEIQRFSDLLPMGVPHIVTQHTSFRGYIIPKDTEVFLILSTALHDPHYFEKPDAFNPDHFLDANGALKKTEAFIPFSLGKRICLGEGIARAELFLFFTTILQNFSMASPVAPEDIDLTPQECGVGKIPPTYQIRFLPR

[4] = AUC(0 to 24 hrs) in female Sprague-Dawley rat at 100 mg/kg/day, po measured at day 1; type: ADME, organism-based; details: in vivo, time 1 day
[5] = target: T1, Protein cereblon/Mitogen-activated protein kinase kinase kinase kinase 1; experiment: PROTAC activity at CRBN/HPK1 in human Jurkat cells assessed as HPK1 degradation at 1 uM pretreated with lenalidomide for 4 hrs followed by compound addition and measured after 24 hrs by Western blotting analysis; type: cell-based
[6] = target: Mitogen-activated protein kinase kinase kinase kinase 4 (Homo sapiens) (UniProt O95819); experiment: Induction of HGK degradation in human Jurkat cells at 1 to 1000 nM incubated for 24 hrs by Western blotting analysis; type: cell-based; details: dose 1-1000 nM
[7] = Induction of INFgamma secretion in human T-cells incubated for 48 hrs by ELISA; type: functional, cell-based; details: T-cell
in vivo [8] = details: female, Sprague-Dawley, rat, po, 100 mg/kg
in vitro [9] = details: rhesus monkey, liver microsomes
MC-38 [10] = experiment: Synergistic antitumor activity against mouse MC38 cells implanted in C57BL/6J mouse assessed as reduction in tumor weight at 0.1 mg/kg, po bid administered for 3 to 4 weeks in presence of 5 mg/kg anti-PD1 and measured twice a week (reference value: 1.79 +/- 0.24 g); type: functional; details: time 3-4 weeks
[11] = AUCinfinity in Sprague-Dawley rat at 2 mg/kg, iv measured upto 24 hrs by LC-MS analysis; type: ADME, organism-based; details: in vivo
[12] = Drug distribution in rat kidney measured after 0.5 to 6 hrs; type: ADME, tissue-based; details: in vivo, time 0.5-6 hrs
[13] = Metabolic stability in human liver microsomes assessed as intrinsic clearance at 1 uM incubated for 45 mins by LC-MS/MS method; type: ADME, Microsome; details: read-out: CLH
Cytochrome P450 3A4 = Cytochrome P450 3A4 (Homo sapiens, UniProt P08684); experiment: Inhibition of CYP3A4 in human liver microsomes using midazolam as substrate in presence of NADPH; type: ADME, Microsome
[14] = Plasma protein binding in rat at 10 uM incubated for 6 hrs by equilibrium dialysis based LC-MS/MS method; type: ADME, cell-free; details: read-out: PPB (converted)
[15] = AUC(0 to 24 hrs) in female Sprague-Dawley rat at 2 mg/kg/day, po measured at day 1; type: ADME, organism-based; details: in vivo, time 1 day
[16] = Initial plasma concentration in Beagle dog at 1 mg/kg, iv measured upto 24 hrs by LC-MS analysis; type: ADME, organism-based, Canis lupus familiaris; details: in vivo
[17] = Half-life in Sprague-Dawley rat at 2 mg/kg, iv measured upto 24 hrs by LC-MS analysis; details: in vivo
[18] = Plasma protein binding in mouse at 10 uM incubated for 6 hrs by equilibrium dialysis based LC-MS/MS method; type: ADME, cell-free; details: read-out: PPB (converted)
MC-38 [19] = experiment: Antitumor activity against mouse MC38 cells implanted in C57BL/6J mouse assessed as reduction in tumor weight at 0.5 mg/kg, po BID administered for 3 to 4 weeks (reference value: 1.79 +/- 0.24 g); type: functional; details: time 3-4 weeks
[20] = Half-life in Beagle dog at 1 mg/kg, iv measured upto 24 hrs by LC-MS analysis; details: in vivo
MC-38 [21] = experiment: Synergistic antitumor activity against mouse MC38 cells implanted in C57BL/6J mouse assessed as reduction in tumor weight at 0.5 mg/kg, po bid administered for 3 to 4 weeks in presence of 5 mg/kg anti-PD1 and measured twice a week (reference value: 1.79 +/- 0.24 g); type: functional; details: time 3-4 weeks
in vitro [22] = details: rat, hepatocytes
[23] = AUC(0 to 24 hrs) in male Sprague-Dawley rat at 2 mg/kg/day, po measured at day 1; type: ADME, organism-based; details: in vivo, time 1 day
MC-38 [24] = experiment: Synergistic antitumor activity against mouse MC38 cells implanted in C57BL/6J mouse assessed as tumor growth inhibition at 0.1 mg/kg, po bid measured after 4 weeks in presence of 5 mg/kg anti-PD1 and measured twice a week; type: functional; details: MC-38, 672 h, read-out: TGI
[25] = Clearance in mouse at 2 mg/kg, iv measured upto 24 hrs by LC-MS analysis; type: ADME, organism-based; details: in vivo
MC-38 [26] = experiment: Synergistic antitumor activity against mouse MC38 cells implanted in C57BL/6J mouse assessed as reduction in tumor weight at 1 mg/kg, po bid administered for 3 to 4 weeks in presence of 5 mg/kg anti-PD1 and measured twice a week (reference value: 1.79 +/- 0.24 g); type: functional; details: time 3-4 weeks
in vitro [27] = details: mouse, hepatocytes
[28] = AUC(0 to 24 hrs) in male Sprague-Dawley rat at 30 mg/kg/day, po measured at day 1; type: ADME, organism-based; details: in vivo, time 1 day
[29] = Drug distribution in rat lymph node measured after 0.5 to 6 hrs; type: ADME, tissue-based; details: in vivo, time 0.5-6 hrs
[30] = Initial plasma concentration in C57BL/6J mouse at 2 mg/kg, iv measured upto 24 hrs by LC-MS analysis; type: ADME, organism-based
[31] = Induction of IL-2 secretion in human PBMCs incubated for 24 hrs by ELISA; type: functional, cell-based, PBMC
in vivo [32] = details: female, Sprague-Dawley, rat, po, 30 mg/kg
[33] = Drug distribution in rat thyroid gland measured after 0.5 to 6 hrs; type: ADME, tissue-based; details: in vivo, time 0.5-6 hrs

T1 sequence (Q92918 whole entry, looked up): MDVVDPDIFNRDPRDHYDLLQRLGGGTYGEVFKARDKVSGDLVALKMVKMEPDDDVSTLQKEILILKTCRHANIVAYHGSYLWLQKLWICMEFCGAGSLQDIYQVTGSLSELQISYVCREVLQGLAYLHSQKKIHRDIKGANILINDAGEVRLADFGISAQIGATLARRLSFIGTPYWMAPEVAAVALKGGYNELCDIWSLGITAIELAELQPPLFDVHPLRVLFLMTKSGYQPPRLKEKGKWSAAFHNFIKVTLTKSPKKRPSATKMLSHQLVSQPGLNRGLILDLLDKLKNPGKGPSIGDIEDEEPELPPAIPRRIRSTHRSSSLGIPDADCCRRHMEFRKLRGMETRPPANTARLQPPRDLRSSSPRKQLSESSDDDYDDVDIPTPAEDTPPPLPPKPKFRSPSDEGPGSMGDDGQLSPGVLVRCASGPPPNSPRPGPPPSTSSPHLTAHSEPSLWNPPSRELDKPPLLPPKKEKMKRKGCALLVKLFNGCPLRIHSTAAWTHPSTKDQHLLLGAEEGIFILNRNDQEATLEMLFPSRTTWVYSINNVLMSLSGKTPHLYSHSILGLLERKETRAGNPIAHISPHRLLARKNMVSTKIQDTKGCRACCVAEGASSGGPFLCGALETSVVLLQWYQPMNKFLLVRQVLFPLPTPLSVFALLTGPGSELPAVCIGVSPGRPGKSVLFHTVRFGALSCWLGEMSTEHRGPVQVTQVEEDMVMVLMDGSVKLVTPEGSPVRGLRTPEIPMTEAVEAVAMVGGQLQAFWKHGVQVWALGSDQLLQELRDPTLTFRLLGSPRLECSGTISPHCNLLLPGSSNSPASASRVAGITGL
T1 sequence (Q96SW2 whole entry, looked up): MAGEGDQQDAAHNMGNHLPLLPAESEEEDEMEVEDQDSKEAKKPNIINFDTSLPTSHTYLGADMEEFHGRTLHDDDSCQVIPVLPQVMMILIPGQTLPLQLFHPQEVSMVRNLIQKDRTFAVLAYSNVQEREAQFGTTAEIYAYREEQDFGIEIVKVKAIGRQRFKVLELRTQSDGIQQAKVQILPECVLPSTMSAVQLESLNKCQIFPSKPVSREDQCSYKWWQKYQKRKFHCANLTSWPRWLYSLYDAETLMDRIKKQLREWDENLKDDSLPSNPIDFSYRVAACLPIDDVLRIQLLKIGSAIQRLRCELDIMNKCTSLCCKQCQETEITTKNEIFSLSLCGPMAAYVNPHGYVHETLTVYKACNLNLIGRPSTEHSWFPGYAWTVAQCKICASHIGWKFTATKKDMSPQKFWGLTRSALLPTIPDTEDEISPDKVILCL
Cytochrome P450 3A4, sequence (P08684 whole entry): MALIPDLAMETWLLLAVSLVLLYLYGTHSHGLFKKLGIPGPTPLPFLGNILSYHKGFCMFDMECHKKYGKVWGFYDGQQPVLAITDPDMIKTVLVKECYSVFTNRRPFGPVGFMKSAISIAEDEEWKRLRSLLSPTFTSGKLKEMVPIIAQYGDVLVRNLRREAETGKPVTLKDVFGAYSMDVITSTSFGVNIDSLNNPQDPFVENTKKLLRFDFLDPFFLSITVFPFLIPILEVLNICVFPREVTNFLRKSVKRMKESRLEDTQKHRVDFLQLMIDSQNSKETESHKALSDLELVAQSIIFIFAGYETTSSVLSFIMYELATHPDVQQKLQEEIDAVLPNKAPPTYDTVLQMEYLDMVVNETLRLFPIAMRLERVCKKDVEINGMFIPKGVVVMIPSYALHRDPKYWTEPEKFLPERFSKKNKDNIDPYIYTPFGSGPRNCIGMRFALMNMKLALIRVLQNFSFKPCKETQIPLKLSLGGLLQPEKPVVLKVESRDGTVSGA
Mitogen-activated protein kinase kinase kinase kinase 4 (Homo sapiens), sequence (O95819 2-1239 limits assumed): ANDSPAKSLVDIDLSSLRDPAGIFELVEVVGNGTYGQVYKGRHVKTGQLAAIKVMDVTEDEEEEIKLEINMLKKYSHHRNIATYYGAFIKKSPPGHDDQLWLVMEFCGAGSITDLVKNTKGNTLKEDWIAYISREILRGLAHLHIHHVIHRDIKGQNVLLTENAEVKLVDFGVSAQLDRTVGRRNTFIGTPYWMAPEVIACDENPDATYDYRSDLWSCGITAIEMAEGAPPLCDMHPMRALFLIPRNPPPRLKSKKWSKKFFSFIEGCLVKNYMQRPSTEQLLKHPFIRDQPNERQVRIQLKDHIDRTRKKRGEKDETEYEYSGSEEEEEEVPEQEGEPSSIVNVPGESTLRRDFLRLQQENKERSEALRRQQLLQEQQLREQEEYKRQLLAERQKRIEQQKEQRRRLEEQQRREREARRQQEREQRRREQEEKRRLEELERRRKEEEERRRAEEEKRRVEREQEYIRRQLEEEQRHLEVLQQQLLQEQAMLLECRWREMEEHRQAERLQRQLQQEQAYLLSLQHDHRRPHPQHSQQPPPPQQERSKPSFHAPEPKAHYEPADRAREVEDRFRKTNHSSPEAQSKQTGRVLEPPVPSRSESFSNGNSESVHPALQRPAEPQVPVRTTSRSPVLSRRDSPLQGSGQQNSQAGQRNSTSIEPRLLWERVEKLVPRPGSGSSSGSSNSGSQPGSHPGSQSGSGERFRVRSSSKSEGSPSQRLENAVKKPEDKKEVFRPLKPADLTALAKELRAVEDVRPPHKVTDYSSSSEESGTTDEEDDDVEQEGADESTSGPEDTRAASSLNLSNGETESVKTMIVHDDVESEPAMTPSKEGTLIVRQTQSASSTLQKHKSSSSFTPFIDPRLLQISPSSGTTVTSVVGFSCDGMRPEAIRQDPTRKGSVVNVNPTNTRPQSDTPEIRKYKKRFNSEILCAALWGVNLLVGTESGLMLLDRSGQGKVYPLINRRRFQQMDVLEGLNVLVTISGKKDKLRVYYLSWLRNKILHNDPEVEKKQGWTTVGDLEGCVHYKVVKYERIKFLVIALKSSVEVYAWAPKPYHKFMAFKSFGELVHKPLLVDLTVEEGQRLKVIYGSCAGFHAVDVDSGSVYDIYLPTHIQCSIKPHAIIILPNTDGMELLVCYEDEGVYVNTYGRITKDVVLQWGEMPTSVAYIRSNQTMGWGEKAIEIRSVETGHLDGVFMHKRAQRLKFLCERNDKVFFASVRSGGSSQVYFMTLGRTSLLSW

With `O=C1CCN(c2cc(C(=O)N3CCC(CC4CCN(c5ccc(-c6cnc7[nH]cc(-c8cnn(CC(F)(F)F)c8)c7n6)cn5)CC4)CC3)ccc2Cl)C(=O)N1` the Tmax [1] was 8 h, the Emax [2] was 94% and the Vdss [3] was 0.386 L/kg. For the same compound, the IC50 (Cytochrome P450 2B6) was > 10 µM, the AUC(0-t) at 24 h [4] was 110000 ng·h/mL and the Activity [5] was “inactive”. For the same compound, the Activity [6] was “inactive”, the EC50 [7] was 0.0326 µM and the Cmax at 24 h (in vivo [8]) was 11200 ng/mL. It also gave a half-life at 0.75 h, 1 µM (in vitro [9]) of 0.607 h, an Activity (MC-38 [10]) of 1.17 g and an AUC(0-inf) [11] of 8220 ng·h/mL. The Drug uptake [12] was “Active”, the microsomal CLint at 1 µM [13] was 3.48 µL/min/mg and the IC50 (Cytochrome P450 3A4) was > 10 µM. It also gave a fraction unbound at 6 h, 10 µM [14] of 0.0008, an AUC(0-t) at 24 h [15] of 539 ng·h/mL and a C0 [16] of 794 ng/mL. The half-life at 24 h [17] was 2.86 h, the fraction unbound at 6 h, 10 µM [18] was 0.0025 and the Activity (MC-38 [19]) was 1.04 g. The half-life at 24 h [20] was 4.86 h, the Activity (MC-38 [21]) was 0.24 g and the half-life at 1.5 h, 1 µM (in vitro [22]) was 3.9 h. It also gave an AUC(0-t) at 24 h [23] of 1040 ng·h/mL, an inhibition in vivo at 0.1 mg/kg (MC-38 [24]) of 39.7% and a clearance [25] of 0.598 mL/min/kg. For the same compound, the Activity (MC-38 [26]) was 0.47 g, the half-life at 1.5 h, 1 µM (in vitro [27]) was 7.62 h and the AUC(0-t) at 24 h [28] was 38200 ng·h/mL. The Drug uptake [29] was “Active”, the C0 at 24 h [30] was 1590 ng/mL and the Emax [31] was 1151.57 pg/mL. For the same compound, the Cmax at 24 h (in vivo [32]) was 4900 ng/mL and the Drug uptake [33] was “Active”.
